Experimental data reported in PMC5516028, “Molecular tools for GABAA receptors: High affinity ligands for β1-containing subtypes” (Scientific Reports, 2017).
Where “and” joins values, the source holds several entries; their conditions need not be identical. Identical values can stand only once. Like-named read-outs stand apart in the source and are kept apart here.

Tests used:
Assay type in all cases: cell-based
α1β1 GABAA receptors = target: T1, α1β1 GABAA receptors (Rattus norvegicus, UniProt P15431+P62813); assay: Two electrode voltage clamp in Xenopus laevis oocytes, α1β1; details: for EC50: read-out: EC50
T1 construct: expressed in transfected cells; host or cells: Xenopus laevis oocytes, mRNA injected
T1 sequence (P62813 28-455): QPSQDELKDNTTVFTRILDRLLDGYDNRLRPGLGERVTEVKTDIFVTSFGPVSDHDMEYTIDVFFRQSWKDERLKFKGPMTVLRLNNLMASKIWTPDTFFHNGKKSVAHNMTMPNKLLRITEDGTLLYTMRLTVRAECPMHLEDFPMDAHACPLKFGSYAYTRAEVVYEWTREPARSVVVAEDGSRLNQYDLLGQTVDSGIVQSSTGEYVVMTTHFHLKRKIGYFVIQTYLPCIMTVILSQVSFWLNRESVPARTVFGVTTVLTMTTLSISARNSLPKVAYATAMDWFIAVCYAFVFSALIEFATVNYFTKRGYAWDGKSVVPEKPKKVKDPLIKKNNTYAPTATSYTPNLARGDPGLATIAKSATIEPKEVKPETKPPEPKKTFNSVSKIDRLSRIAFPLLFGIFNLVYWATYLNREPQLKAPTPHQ
T1 sequence (P15431 26-474): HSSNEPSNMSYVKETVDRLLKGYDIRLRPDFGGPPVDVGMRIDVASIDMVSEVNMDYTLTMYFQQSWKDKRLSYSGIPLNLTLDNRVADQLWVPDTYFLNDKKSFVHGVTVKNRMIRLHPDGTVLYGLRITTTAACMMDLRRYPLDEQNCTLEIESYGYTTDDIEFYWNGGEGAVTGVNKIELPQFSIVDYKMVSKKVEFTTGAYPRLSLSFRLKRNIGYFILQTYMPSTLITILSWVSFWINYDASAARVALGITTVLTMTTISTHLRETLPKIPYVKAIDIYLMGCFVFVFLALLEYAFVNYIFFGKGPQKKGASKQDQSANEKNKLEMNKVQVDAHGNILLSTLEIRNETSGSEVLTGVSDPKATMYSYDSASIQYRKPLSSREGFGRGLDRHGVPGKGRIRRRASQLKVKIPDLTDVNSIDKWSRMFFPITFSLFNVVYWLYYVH
Method in brief: (§1)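 Currents are recorded in NDE medium (96 mM NaCl, 2 mM KCl, 1 mM MgCl2, 1.8 mM CaCl2, 5 mM HEPES, pH 7.5). Receptors come from 4.5 ng of injected cRNA, mixed 1:1 (αβ) or 1:1:5 (αβγ2).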

α1β2 GABAA receptors = target: T2, α1β2 GABAA receptors (Rattus norvegicus, UniProt P62813+P63138); assay: Two electrode voltage clamp in Xenopus laevis oocytes, α1β2
T2 construct: expressed in transfected cells; host or cells: Xenopus laevis oocytes, mRNA injected
T2 sequence (P62813 28-455): as the sequence (P62813 28-455) above
T2 sequence (P63138 25-474 limits assumed): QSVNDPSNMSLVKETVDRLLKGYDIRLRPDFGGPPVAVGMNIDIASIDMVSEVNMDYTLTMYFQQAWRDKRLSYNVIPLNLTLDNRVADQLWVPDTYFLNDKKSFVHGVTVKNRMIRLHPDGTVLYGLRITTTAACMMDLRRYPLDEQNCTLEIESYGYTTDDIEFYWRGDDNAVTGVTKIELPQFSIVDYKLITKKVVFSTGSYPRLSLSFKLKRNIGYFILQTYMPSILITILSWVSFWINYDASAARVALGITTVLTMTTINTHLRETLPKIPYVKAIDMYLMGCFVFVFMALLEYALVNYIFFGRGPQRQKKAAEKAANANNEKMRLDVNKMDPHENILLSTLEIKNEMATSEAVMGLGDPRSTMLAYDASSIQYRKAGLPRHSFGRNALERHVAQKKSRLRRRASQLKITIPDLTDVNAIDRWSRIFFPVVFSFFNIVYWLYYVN
Method in brief: as §1

α1β3 GABAA receptors = target: T3, α1β3 GABAA receptors (Rattus norvegicus, UniProt P62813+P63079); assay: Two electrode voltage clamp in Xenopus laevis oocytes, α1β3
T3 construct: expressed in transfected cells; host or cells: Xenopus laevis oocytes, mRNA injected
T3 sequence (P62813 28-455): as the sequence (P62813 28-455) above
T3 sequence (P63079 26-473): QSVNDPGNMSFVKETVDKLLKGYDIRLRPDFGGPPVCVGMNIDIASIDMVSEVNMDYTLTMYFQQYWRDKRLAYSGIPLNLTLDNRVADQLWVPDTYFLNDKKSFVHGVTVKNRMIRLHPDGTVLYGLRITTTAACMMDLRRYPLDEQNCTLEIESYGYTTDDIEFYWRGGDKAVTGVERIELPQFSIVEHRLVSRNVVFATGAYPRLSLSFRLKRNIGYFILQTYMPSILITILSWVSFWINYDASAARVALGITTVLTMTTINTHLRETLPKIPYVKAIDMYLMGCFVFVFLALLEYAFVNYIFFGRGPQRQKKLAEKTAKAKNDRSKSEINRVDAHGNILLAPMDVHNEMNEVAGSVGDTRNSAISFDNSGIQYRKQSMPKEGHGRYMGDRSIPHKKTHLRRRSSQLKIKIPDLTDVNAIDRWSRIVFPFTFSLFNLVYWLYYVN
Method in brief: (§2)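 Expression used a 1:1 cRNA mix for αβ, which gives predominantly 3β:2α receptors, and a 1:1:5 mix where γ2 was included. Recordings took place in Ca²⁺-containing NDE at pH 7.5 after 2–3 days (αβ) or 3–4 days (αβγ).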

α1β1R41N GABAA receptors = target: T4, α1β1R41N GABAA receptors (Rattus norvegicus, UniProt P15431+P62813, R66N); assay: Two electrode voltage clamp in Xenopus laevis oocytes, mutant α1β1R41N; details: read-out: % of control current at EC3-5
T4 construct: expressed in transfected cells; host or cells: Xenopus laevis oocytes, mRNA injected
T4 sequence (P62813 28-455): as the sequence (P62813 28-455) above
T4 sequence (P15431 26-474 R66N): as the sequence (P15431 26-474) above, with R41N counted along it
Method in brief: as §1

α1β3N41R GABAA receptors = target: T5, α1β3N41R GABAA receptors (Rattus norvegicus, UniProt P62813+P63079, N66R); assay: Two electrode voltage clamp in Xenopus laevis oocytes, mutant α1β3N41R; details: co-applied with GABA EC3-5, read-out: EC50 values for the mutated receptors
T5 construct: expressed in transfected cells; host or cells: Xenopus laevis oocytes, mRNA injected
T5 sequence (P62813 28-455): as the sequence (P62813 28-455) above
T5 sequence (P63079 26-473 N66R): as the sequence (P63079 26-473) above, with N41R counted along it
Method in brief: as §2

α2β3γ2 GABAA receptors = target: T6, α2β3γ2 GABAA receptors (Rattus norvegicus, UniProt P23576+P63079); assay: Two electrode voltage clamp in Xenopus laevis oocytes, α2β3γ2
T6 construct: expressed in transfected cells; host or cells: Xenopus laevis oocytes, mRNA injected
T6 sequence (P23576 29-451): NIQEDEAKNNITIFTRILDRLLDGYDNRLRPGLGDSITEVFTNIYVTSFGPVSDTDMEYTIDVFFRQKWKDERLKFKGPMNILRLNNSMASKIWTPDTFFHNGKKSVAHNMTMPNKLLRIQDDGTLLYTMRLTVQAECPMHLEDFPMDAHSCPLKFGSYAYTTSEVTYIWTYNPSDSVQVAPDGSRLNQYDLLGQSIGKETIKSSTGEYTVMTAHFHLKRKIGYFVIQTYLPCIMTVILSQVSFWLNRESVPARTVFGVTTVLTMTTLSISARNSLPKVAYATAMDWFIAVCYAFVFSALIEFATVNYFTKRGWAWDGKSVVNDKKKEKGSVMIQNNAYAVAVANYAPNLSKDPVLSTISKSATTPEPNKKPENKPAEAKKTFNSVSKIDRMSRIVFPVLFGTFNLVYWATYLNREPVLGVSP
T6 sequence (P63079 26-473): as the sequence (P63079 26-473) above
T6 sequence (P18508 39-466 partner): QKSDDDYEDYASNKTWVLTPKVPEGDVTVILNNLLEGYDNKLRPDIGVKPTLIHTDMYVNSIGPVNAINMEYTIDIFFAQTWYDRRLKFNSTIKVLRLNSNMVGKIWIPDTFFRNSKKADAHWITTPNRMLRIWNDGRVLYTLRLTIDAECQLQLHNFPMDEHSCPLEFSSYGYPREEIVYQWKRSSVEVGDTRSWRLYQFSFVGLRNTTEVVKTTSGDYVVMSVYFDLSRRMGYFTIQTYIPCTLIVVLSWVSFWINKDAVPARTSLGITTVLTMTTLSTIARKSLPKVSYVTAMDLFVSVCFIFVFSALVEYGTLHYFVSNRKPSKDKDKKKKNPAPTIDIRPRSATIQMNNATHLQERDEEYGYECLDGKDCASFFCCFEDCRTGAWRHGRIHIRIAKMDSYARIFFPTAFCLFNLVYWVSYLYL
Excerpt: (§3) cDNA’s of rat GABAA receptor subunits α1, α4, β1, β2, β3 and γ2S were cloned as described. cDNAs of the rat subunits α2, α3 and α5 were gifts from P. Malherbe, that of α6 and γ1 were gifts of P. Seeburg and that of δ was a gift of C. Czajkowski. The mutants were constructed using the Q5 Site-Directed Mutagenesis Kit (New England Biolabs) following manufacturer’s instruction. We used the wild-type rat β3-pCI vector as template and the primers […] and […] resulting in a substitution of amino acid N41 (AAC) to R (AGG). We used the wild-type rat β1-pCI vector as template and the primers […] and […] resulting in a substitution of amino acid R41 (CGG) to N (AAC). The mutated subunits were confirmed by sequencing.
(§4) In vitro transcription of mRNA was based on the cDNA expression vectors encoding for rat GABAA receptor subunits α1–6, β1-3, γ1,2, δ and the two β mutants (β1R41N and β3N41R)[40]. After linearizing the cDNA vectors with appropriate restriction endonucleases, the cDNA was purified and concentrated with the DNA Clean and Contentrator ^TM Kit (Zymoresearch, Catalog No. D4005). Capped transcripts of the purified cDNA were produced using the mMESSAGE mMACHINE® T7 transcription kit (Ambion, TX, USA) and polyadenylated using the Ambion PolyA tailing kit (Ambion). After transcription and polyadenylation the RNA was purified with the MEGAclear ^TM Kit (Ambion, Catalog No. AM1908). The final RNA concentration was measured on NanoDrop® ND-1000 and finally diluted and stored in diethylpyrocarbonate-treated water at −80 °C. For the microinjection, the RNA of αβ receptor combinations was mixed at 1:1 ratio (which leads to αβ receptors that consist of predominantly 3 beta and 2 alpha subunits[27]), for αkβlγm (k = 1–3, l = 1, 3, m = 1, 2) receptors at 1:1:5 ratio, for αkβ3γ2 (k = 4–6) and αkβlδ (k = 1, 4 and 6, l = 1, 3) receptor combinations at 3:1:5 ratio.
(§5) Mature female Xenopus laevis (Nasco, WI) were anesthetized in a bath of ice-cold 0.17% Tricain (Ethyl-m-aminobenzoate, Sigma, MO) before decapitation in full accordance with all rules of the Austrian animal protection law (see http://www.ris.bka.gv.at/Dokumente/BgblAuth/BGBLA_2012_I_114/BGBLA_2012_I_114.pdf) and the Austrian animal experiment by-laws (see https://www.ris.bka.gv.at/Dokumente/BgblAuth/BGBLA_2012_II_522/BGBLA_2012_II_522.pdf) which implement the European Directive 2010/63/EU (see http://eur-lex.europa.eu/LexUriServ/LexUriServ.do?uri=OJ:L:2010:276:0033:0079:en:PDF) into the Austrian law (all information accessed on July 27, 2016). The frog’s ovaries were transferred to ND96 medium (96 mM NaCl, 2 mM KCl, 1 mM MgCl2, 5 mM HEPES; pH 7.5). Stage 5–6 oocytes with the follicle cell layer around them were roughly dissected with forceps into packages of 10–15 cells and washed in Ca^2+-free ND96 medium. Cells were then digested with collagenase (type IA, Sigma, NO, 1 mg/mL ND96) at 18 °C shaking at 30 rpm for 30–60 minutes and gently defolliculated with the aid of a glass pipette with appropriate tip diameter and a platinum loop. Defolliculated cells were stored at 18 °C for at least 6 hours in ND96 solution containing penicillin G (10000 IU/100 mL) and streptomycin (10 mg/100 mL) in order to preselect and exclude damaged cells from further treatment. Healthy defolliculated oocytes were injected with an aqueous solution of mRNA. A total of 4.5 ng of mRNA per oocyte was injected with a Nanoject II (Drummond). After injection of mRNA, oocytes were incubated at 18 °C (ND96 + antibiotic) for 2–3 days for αβ receptors and for 3–4 days for αβγ or αβδ receptors before recording. When cells were measured at later time points, oocytes were stored at +4 °C instead of 18 °C.
(§6) For electrophysiological recordings, oocytes were placed on a nylon-grid in a bath of Ca^2+-containing NDE solution medium [96 mM NaCl, 5 mM HEPES-NaOH (pH 7.5), 2 mM KCl, 1 mM MgCl2, 1.8 mM CaCl2].

α5β3 GABAA receptors = target: T7, α5β3 GABAA receptors (Rattus norvegicus, UniProt P19969+P63079); assay: Two electrode voltage clamp in Xenopus laevis oocytes, α5β3; details: read-out: efficacy, % of control current (GABA EC3-5 = 100%), α5β3
T7 construct: expressed in transfected cells; host or cells: Xenopus laevis oocytes, mRNA injected
T7 sequence (P19969 32-464 limits assumed): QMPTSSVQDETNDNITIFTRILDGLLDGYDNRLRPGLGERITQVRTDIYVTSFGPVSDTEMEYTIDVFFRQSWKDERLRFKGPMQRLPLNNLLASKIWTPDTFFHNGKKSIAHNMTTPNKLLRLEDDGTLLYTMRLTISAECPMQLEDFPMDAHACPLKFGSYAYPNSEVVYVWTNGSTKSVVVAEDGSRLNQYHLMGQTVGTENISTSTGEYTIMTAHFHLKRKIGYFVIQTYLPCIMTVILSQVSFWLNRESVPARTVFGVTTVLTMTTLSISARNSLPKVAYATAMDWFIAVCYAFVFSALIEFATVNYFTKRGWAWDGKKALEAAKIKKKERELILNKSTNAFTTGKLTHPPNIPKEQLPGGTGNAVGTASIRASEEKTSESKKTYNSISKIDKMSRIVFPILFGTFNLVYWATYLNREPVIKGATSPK
T7 sequence (P63079 26-473): as the sequence (P63079 26-473) above
Excerpt: as §3, §4, §5, §6

activity at 0.01 µM (α1β1 GABAA receptors; read-out: efficacy, % of control current (GABA EC3-5 = 100%), α1β1, 10 nM): 116 ± 3.6% | activity at 0.3 µM (α1β1 GABAA receptors; read-out: efficacy, % of control current (GABA EC3-5 = 100%), α1β1, 300 nM): 299 ± 29.7% | activity at 10 µM (α1β1 GABAA receptors; read-out: efficacy, % of control current (GABA EC3-5 = 100%), α1β1, 10 µM): 403 ± 50.9% | Hill slope (nH) (α1β1 GABAA receptors; α1β1): 1.0±0.4 | EC50 (α1β1 GABAA receptors; α1β1 (α1+/β1− interface)): ~200 nM | EC50 (α1β1 GABAA receptors; α1β1, co-applied with GABA EC3-5): 220 nM | EC50 (α1β2 GABAA receptors): 1050 nM | activity at 30 µM (α1β2 GABAA receptors; read-out: efficacy, % of control current (GABA EC3-5 = 100%), α1β2, 30 µM): 106 ± 11.4% | Hill slope (nH) (α1β2 GABAA receptors; α1β2): 2.0±0.7 | activity at 0.001 µM (α1β3 GABAA receptors; read-out: efficacy, % of control current (GABA EC3-5 = 100%), α1β3, 1 nM): 106 ± 1.9% | activity at 0.01 µM (α1β3 GABAA receptors; read-out: efficacy, % of control current (GABA EC3-5 = 100%), α1β3, 10 nM): 108 ± 5.1% | activity at 0.1 µM (α1β3 GABAA receptors; read-out: efficacy, % of control current (GABA EC3-5 = 100%), α1β3, 100 nM): 125 ± 4.6% | activity at 0.3 µM (α1β3 GABAA receptors; read-out: efficacy, % of control current (GABA EC3-5 = 100%), α1β3, 300 nM): 128 ± 8% | activity at 3 µM (α1β3 GABAA receptors; read-out: efficacy, % of control current (GABA EC3-5 = 100%), α1β3, 3 µM): 254 ± 28.7% | Hill slope (nH) (α1β3 GABAA receptors; α1β3): 1.1±0.5 | efficacy, % of control current (GABA EC3-5 = 100%) (α1β3 GABAA receptors; α1β3, 100 nM, 0.1 µM): 117.8±5.9% | EC50 (α1β3 GABAA receptors; α1β3, co-applied with GABA EC3-5, read-out: EC50): 1470 nM and 2200 nM | current as % of control at 0.1 µM (α1β1R41N GABAA receptors; 100nM): 70 ± 1% | current as % of control at 0.3 µM (α1β1R41N GABAA receptors; 300nM): 65 ± 6% | current as % of control at 1 µM (α1β1R41N GABAA receptors; 1μM): 85 ± 7% | current as % of control at 3 µM (α1β1R41N GABAA receptors; 3µM): 100 ± 8% | current as % of control at 10 µM (α1β1R41N GABAA receptors; 10μM): 125 ± 5% | current as % of control at 30 µM (α1β1R41N GABAA receptors; 30μM): 110 ± 10% | EC50 (α1β3N41R GABAA receptors): 200 nM | EC50 (α2β3γ2 GABAA receptors): > 10000 nM | activity at 0.01 µM (α2β3γ2 GABAA receptors; read-out: efficacy, % of control current (GABA EC3-5 = 100%), α2β3γ2, 10 nM): 103 ± 3.2% | activity at 0.1 µM (α2β3γ2 GABAA receptors; read-out: efficacy, % of control current (GABA EC3-5 = 100%), α2β3γ2, 100 nM): 103 ± 3.2% | activity at 1 µM (α2β3γ2 GABAA receptors; read-out: efficacy, % of control current (GABA EC3-5 = 100%), α2β3γ2, 1 µM): 106 ± 2.2% | activity at 10 µM (α2β3γ2 GABAA receptors; read-out: efficacy, % of control current (GABA EC3-5 = 100%), α2β3γ2, 10 µM): 124 ± 4.1% | activity at 0.1 µM (α5β3 GABAA receptors; 100 nM): 115 ± 8% | activity at 1 µM (α5β3 GABAA receptors; 1 µM): 108 ± 4.7% | activity at 10 µM (α5β3 GABAA receptors; 10 µM): 75.4 ± 6.4%
Compound: Nc1ccc(-n2nc3c4cc(Cl)ccc4[nH]cc-3c2=O)cc1 [Compound 3, 8-Chloro-2-(4-aminophenyl)-2H-pyrazolo[4,3-c]quinolin-3(5H)-one]
